Data: patent publication US20060089329A1, “Ready-to-use gemcitabine solution concentrates” (priority 2004, published 2006)
In brackets after ≈: the same amount, converted by molar mass. Counter-ions that a name gives are not always drawn. Like-named read-outs stand apart in the source and are kept apart here.

Legend:
[1] = Saturation concentration of gemcitabine in aqueous ethyl alcohol solutions (Example 3); assay type: physicochemical; details: interpolation (polynomial of the 6th degree), about 66 percent by volume of ethyl alcohol, pH 10±0.5
Method: In order to determine the saturation concentration of gemcitabine in aqueous ethyl alcohol solutions, gemcitabine solutions with various volume percentages of ethyl alcohol were prepared and analyzed.
Gemcitabine hydrochloride was placed beforehand in the mixing vessel, reacted with a stoichiometric amount of alkalizer (1N sodium hydroxide) dissolved in water, then treated each time with 80% of the required amounts of water for injection as determined in preliminary tests as well as with the amounts of ethyl alcohol required each time.
The components contained in the batch were subsequently dissolved at room temperature (19-23° C.) while agitating for 6 hours such that an undissolved sediment of gemcitabine hydrochloride remained in the mixing vessel. The pH of the batch was determined potentiometrically and, when required, adjusted to a pH of 10 with 1N sodium hydroxide or 1N hydrochloric acid, so as to achieve at this pH a complete conversion of the gemcitabine hydrochloride to the dissolved gemcitabine base.
The batch was stored for 24 hours at 19-23° C. […] These batches were then filtered until free of particles, and the gemcitabine content was determined by HPLC.

[2] = Maximum solubility of gemcitabine hydrochloride at 66 vol. % ethyl alcohol after dissolving at 35-45° C. (Example 4); assay type: physicochemical; details: dissolved at 35-45° C. for 6 hours, cooled, stored 24 hours at 19-23° C.
Method: The maximum solubility of gemcitabine hydrochloride was determined with further use of 1N sodium hydroxide, water for injection and absolute ethyl alcohol in a proportion of 66 percent by volume recognized as optimum for that purpose, at increased solution temperatures (35-45° C. for 6 hours under agitation) and subsequent cooling to room temperature (19-23° C.), and then stored for 24 hours at 19-23° C.

[3] = cited from earlier work

maximum gemcitabine solubility ([1]; hydrochloride) [mg/mL]	content in particle-free supernatant (maximum solubility) ([2]; hydrochloride) [mg/mL]	solubility at 6 h ([1]; aqueous ethyl alcohol solution, 21 °C, pH 10, aqueous with cosolvent or surfactant or cyclodextrin, thermodynamic from solid, read-out: maximum gemcitabine solubility) [mg/mL]	solubility at 6 h ([2]; aqueous ethyl alcohol solution, aqueous with cosolvent or surfactant or cyclodextrin, thermodynamic from solid, read-out: content in particle-free supernatant (maximum solubility)) [mg/mL]	Structure (SMILES)	solubility in water ([3]; pH of 5) [mg/mL]	solubility in water ([3]; pH of 7) [mg/mL]	solubility in water ([3]; pH of 9) [mg/mL]	solubility in water ([3]; pH range of 2.7 to 3.3)
55	108.3			Nc1ccn([C@@H]2O[C@H](CO)[C@@H](O)C2(F)F)c(=O)n1 [gemcitabine hydrochloride]				
		50 (≈ 190 mM)	95.1 (≈ 361 mM)	Nc1ccn([C@@H]2O[C@H](CO)[C@@H](O)C2(F)F)c(=O)n1 [gemcitabine, 2′-deoxy-2′,2′-difluorocytidine]	16.0 (≈ 60.8 mM)	15.3 (≈ 58.1 mM)	15.8 (≈ 60 mM)	about 38 mg/ml
